ChEMBL document CHEMBL5113542, “Highly Potent and Oral Macrocyclic Peptides as a HIV-1 Protease Inhibitor: mRNA Display-Derived Hit-to-Lead Optimization” (ACS Med Chem Lett, 2022)
Starred links: 1 amine or outer side, 2 acyl side, 3 side chain; linkers in the order of their positions; H or OH if unused. Positions of bridges follow the written chain, without caps; N, C: chain ends. Non-standard residues stand in square brackets, D forms with d. Residues, ends and D or L forms follow the SMILES beside them. X3 = O=C([C@H](CCC1=CCC(F)(F)CC1)N[*:1])[*:2]; Trp(1-Me) = Cn1cc(C[C@H](N)C(=O)O)c2ccccc21; 1Nal = N[C@@H](Cc1cccc2ccccc12)C(=O)O; NHCH2CH2SCH2CO = O=C(CSCCN[*:1])[*:2]; NMeF = CN[C@@H](Cc1ccccc1)C(=O)O; hCha = N[C@@H](CCC1CCCCC1)C(=O)O; hPhe = N[C@@H](CCc1ccccc1)C(=O)O; X1 = CC(C)(CN[*:1])SCC(=O)[*:2]; X2 = CC(C)(SCCN[*:1])C(=O)[*:2]; Pen = CC(C)(S)[C@H](N)C(=O)O; αMeV = CC(C)[C@](C)(N)C(=O)O; αMeP = C[C@@]1(C(=O)O)CCCN1

Experiments:
[1] = biological target: Human immunodeficiency virus type 1 protease (Human immunodeficiency virus 1, UniProt Q72874); assay: Inhibition of HIV-1 protease using EDANS-RESGIFLETSKR-DABCYL as substrate preincubated for 15 mins followed by substrate addition and measured after 60 mins by fluorescence based assay
[2] = system: Human immunodeficiency virus 1; assay: Anti-HIV activity against HIV-1 3B strain infected in human MT4 cells assessed as inhibition of virus-induced cell death preincubated with compound for 1 hrs followed by viral infection and measured after 4 days by MTT assay; format: functional, organism-based; details: Human immunodeficiency virus 1, 3B
[3] = Metabolic stability in human liver S9 fraction incubated for 60 mins by LC-MS/MS analysis; format: ADME, subcellular; details: read-out: Stability
[4] = Metabolic stability in human liver microsomes incubated for 30 mins in the presence of NADPH by LC-MS/MS analysis; format: ADME, Microsome; details: read-out: Stability
[5] = Metabolic stability in rat liver microsomes incubated for 30 mins in the presence of NADPH by LC-MS/MS analysis; format: ADME, Microsome; details: read-out: Stability
[6] = Volume of distribution at steady state in Sprague-Dawley rat at 2 umol/kg, po or 1 umol/kg, iv administered as single dose by LC-MS/MS analysis; format: ADME, organism-based; details: in vivo, dose 1 µmol/kg
[7] = Half-life in Sprague-Dawley rat at 2 umol/kg, po or 1 umol/kg, iv administered as single dose by LC-MS/MS analysis; format: ADME, organism-based; details: in vivo, dose 2 µmol/kg
[8] = Oral bioavailability in Sprague-Dawley rat at 2 umol/kg administered as single dose by LC-MS/MS analysis; format: ADME, organism-based; details: in vivo, at 2 µmol/kg
[9] = Unbound fraction in rat serum measured after 24 hrs by equilibrium dialysis based LC-MS/MS analysis; format: ADME, cell-free
[10] = Solubility of the compound at pH 6.8 incubated for 1 hrs in the presence of taurocholic acid by UHPLC/MS analysis; format: physicochemical; details: medium containing taurocholic acid

Structure (SMILES) | IC50 [1] | EC50 [2] | remaining at 1 h [3] | remaining at 0.5 h [4] | remaining at 0.5 h [5] | Vdss [6] | half-life [7] | bioavailability [8] | fraction unbound at 24 h [9] | solubility at 1 h [10]
CC(C)C[C@@H]1NC(=O)[C@](C)(C(C)C)NC(=O)[C@@H]2CCCN2C(=O)[C@H](C(C)C)NC(=O)[C@H](Cc2ccccc2)NC(=O)CSCCNC(=O)[C@H](Cc2ccccc2)N(C)C(=O)[C@H](CC(C)C)NC(=O)[C@H](Cc2cccc3ccccc23)NC1=O (cyclo([1Nal]L[NMeF][NHCH2CH2SCH2CO]FVP[αMeV]L)) | 0.44 nM | 120 nM | 69% |  |  |  |  |  |  | 
COC(=O)[C@H]1NC(=O)[C@H](C)NC(=O)[C@H](Cc2ccccc2)N(C)C(=O)[C@H](CC(C)C)NC(=O)[C@H](CCC2CCCCC2)NC(=O)[C@H](CC(C)C)NC(=O)[C@H](C(C)C)NC(=O)[C@]2(C)CCCN2C(=O)[C@H](C(C)C)NC(=O)[C@H](Cc2ccccc2)NC(=O)CSC1(C)C ({CH2CO}-FV[αMeP]VL[hCha]L[NMeF]A[Pen]-OMe; thioether N-10) | 3.52 nM | 37 nM |  | 23% | 63% | 1.9 L/kg | 3.9 h | 3.3% | 0.001 | 10 µM
CC(C)C[C@@H]1NC(=O)[C@H](C(C)C)NC(=O)[C@]2(C)CCCN2C(=O)[C@H](C(C)C)NC(=O)[C@H](Cc2ccccc2)NC(=O)CSCCNC(=O)[C@H](Cc2ccccc2)NC(=O)[C@H](Cc2ccccc2)N(C)C(=O)[C@H](CC(C)C)NC(=O)[C@H](CCC2CCCCC2)NC1=O (cyclo(FV[αMeP]VL[hCha]L[NMeF]F[NHCH2CH2SCH2CO])) | 2.32 nM | 56 nM |  |  |  |  |  |  |  | 
CC(C)C[C@@H]1NC(=O)[C@H](C(C)C)NC(=O)[C@@H]2CCCN2C(=O)[C@H](C(C)C)NC(=O)[C@H](Cc2ccccc2)NC(=O)CSCCNC(=O)[C@H](Cc2ccccc2)N(C)C(=O)[C@H](CC(C)C)NC(=O)[C@H](Cc2cn(C)c3ccccc23)NC1=O (cyclo(FVPVL[Trp(1-Me)]L[NMeF][NHCH2CH2SCH2CO])) | 7.86 nM | 1500 nM |  |  |  |  |  |  |  | 
CC(C)C[C@@H]1NC(=O)[C@H](C(C)C)NC(=O)[C@]2(C)CCCN2C(=O)[C@H](C(C)C)NC(=O)[C@H](Cc2ccccc2)NC(=O)CSCCNC(=O)[C@H](Cc2ccccc2)N(C)C(=O)[C@H](CC(C)C)NC(=O)[C@H](Cc2cccc3ccccc23)NC1=O (cyclo([1Nal]L[NMeF][NHCH2CH2SCH2CO]FV[αMeP]VL)) | 0.78 nM | 30 nM | 86% |  |  |  |  |  |  | 
CC(C)C[C@@H]1NC(=O)[C@H](C(C)C)NC(=O)[C@@H]2CCCN2C(=O)[C@H](C(C)C)NC(=O)[C@H](Cc2ccccc2)NC(=O)CSCCNC(=O)[C@H](Cc2ccccc2)N(C)C(=O)[C@H](CC(C)C)NC(=O)[C@H](Cc2c[nH]c3ccccc23)NC1=O (cyclo(FVPVLWL[NMeF][NHCH2CH2SCH2CO])) | 8.05 nM | 610 nM |  |  |  |  |  |  |  | 
CC(C)C[C@@H]1NC(=O)[C@H](C(C)C)NC(=O)[C@]2(C)CCCN2C(=O)[C@H](C(C)C)NC(=O)[C@H](Cc2ccccc2)NC(=O)CSCCNC(=O)[C@H](Cc2ccccc2)N(C)C(=O)[C@H](CC(C)C)NC(=O)[C@H](CCc2ccccc2)NC1=O (cyclo(FV[αMeP]VL[hPhe]L[NMeF][NHCH2CH2SCH2CO])) | 0.45 nM | 28 nM |  |  |  |  |  |  |  | 
CC(C)C[C@@H]1NC(=O)[C@H](C(C)C)NC(=O)[C@]2(C)CCCN2C(=O)[C@H](C(C)C)NC(=O)[C@H](Cc2ccccc2)NC(=O)CSC(C)(C)CNC(=O)[C@H](C)NC(=O)[C@H](Cc2ccccc2)N(C)C(=O)[C@H](CC(C)C)NC(=O)[C@H](CCC2CCCCC2)NC1=O (cyclo(A[X1]FV[αMeP]VL[hCha]L[NMeF])) | 0.62 nM | 11 nM |  | 20% | 60% | 0.7 L/kg | 2 h | 0.2% | 0.001 | 
CC(C)C[C@@H]1NC(=O)[C@H](C(C)C)NC(=O)[C@@H]2CCCN2C(=O)[C@H](C(C)C)NC(=O)[C@H](Cc2ccccc2)NC(=O)CSCCNC(=O)[C@H](Cc2ccccc2)N(C)C(=O)[C@H](CC(C)C)NC(=O)[C@H](Cc2cccc3ccccc23)NC1=O (cyclo([1Nal]L[NMeF][NHCH2CH2SCH2CO]FVPVL)) | 0.68 nM | 320 nM | 46% |  |  |  |  |  |  | 
CC(C)C[C@@H]1NC(=O)[C@H](C(C)C)NC(=O)[C@]2(C)CCCN2C(=O)[C@H](C(C)C)NC(=O)[C@H](Cc2ccccc2)NC(=O)CSCCNC(=O)[C@H](CC(C)C)NC(=O)[C@H](Cc2ccccc2)N(C)C(=O)[C@H](CC(C)C)NC(=O)[C@H](CCC2CCCCC2)NC1=O (cyclo(FV[αMeP]VL[hCha]L[NMeF]L[NHCH2CH2SCH2CO])) | 2.3 nM | 62 nM |  |  |  |  |  |  |  | 
CC(C)C[C@@H]1NC(=O)[C@H](C(C)C)NC(=O)[C@]2(C)CCCN2C(=O)[C@H](C(C)C)NC(=O)[C@H](Cc2ccccc2)NC(=O)CSCCNC(=O)[C@H](Cc2ccccc2)N(C)C(=O)[C@H](CC(C)C)NC(=O)[C@H](CCC2=CCC(F)(F)CC2)NC1=O (cyclo(FV[αMeP]VL[X3]L[NMeF][NHCH2CH2SCH2CO])) | 0.21 nM | 10 nM |  |  |  |  |  |  |  | 
CC(C)C[C@@H]1NC(=O)[C@H](C(C)C)NC(=O)[C@]2(C)CCCN2C(=O)[C@H](C(C)C)NC(=O)[C@H](Cc2ccccc2)NC(=O)CSCCNC(=O)[C@H](Cc2ccccc2)N(C)C(=O)[C@H](CC(C)C)NC(=O)[C@H](CCC2CCCCC2)NC1=O (cyclo(FV[αMeP]VL[hCha]L[NMeF][NHCH2CH2SCH2CO])) | 0.29 nM | 12 nM |  |  |  |  |  |  |  | 
CC(C)C[C@@H]1NC(=O)[C@H](C(C)C)NC(=O)[C@]2(C)CCCN2C(=O)[C@H](C(C)C)NC(=O)[C@H](Cc2ccccc2)NC(=O)CSCCNC(=O)CNC(=O)[C@H](Cc2ccccc2)N(C)C(=O)[C@H](CC(C)C)NC(=O)[C@H](CCC2CCCCC2)NC1=O (cyclo(FV[αMeP]VL[hCha]L[NMeF]G[NHCH2CH2SCH2CO])) | 0.37 nM | 29 nM | 85% |  |  |  |  |  |  | 
CC(C)C[C@@H]1NC(=O)[C@H](C(C)C)NC(=O)[C@@H]2CCCN2C(=O)[C@H](C(C)C)NC(=O)[C@H](Cc2ccccc2)NC(=O)CSCCNC(=O)CNC(=O)[C@H](Cc2ccccc2)N(C)C(=O)[C@H](CC(C)C)NC(=O)[C@H](Cc2c[nH]c3ccccc23)NC1=O (cyclo(FVPVLWL[NMeF]G[NHCH2CH2SCH2CO])) | 0.99 nM | 960 nM | 23% | 3% | 29% | 0.1 L/kg | 0.7 h |  | 0.011 | 26 µM
CC(C)C[C@@H]1NC(=O)[C@H](C(C)C)NC(=O)[C@]2(C)CCCN2C(=O)[C@H](C(C)C)NC(=O)[C@H](Cc2ccccc2)NC(=O)C(C)(C)SCCNC(=O)[C@H](C)NC(=O)[C@H](Cc2ccccc2)N(C)C(=O)[C@H](CC(C)C)NC(=O)[C@H](CCC2CCCCC2)NC1=O (cyclo(A[X2]FV[αMeP]VL[hCha]L[NMeF])) | 15.3 nM | 150 nM |  | 28% | 46% |  |  |  |  | 
CC(C)C[C@@H]1NC(=O)[C@H](C(C)C)NC(=O)[C@]2(C)CCCN2C(=O)[C@H](C(C)C)NC(=O)[C@H](Cc2ccccc2)NC(=O)CSCCNC(=O)[C@H](C)NC(=O)[C@H](Cc2ccccc2)N(C)C(=O)[C@H](CC(C)C)NC(=O)[C@H](CCC2CCCCC2)NC1=O (cyclo(A[NHCH2CH2SCH2CO]FV[αMeP]VL[hCha]L[NMeF])) | 0.28 nM | 24 nM |  | 8% | 53% | 0.8 L/kg | 1.6 h |  | 0.001 | 
